In patent US12492210B2, “Tricyclic compounds and their use” (HUTCHISON MEDIPHARMA LIMITED, priority 2019, dated 2025):

Columns and labels:
MAPK1(ERK2) enzyme = target: T1, MAPK1(ERK2) enzyme (Homo sapiens, UniProt P28482); assay: Z-Lyte Kinase Assay of ERK2; format: biochemical; conditions: read-out: Example 18 IC50
T1 construct: purchased Invitrogen PV3313
Method in brief: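 FRET-based Z-LYTE assay using ERK2 kinase with Ser/Thr3 peptide; compound tested at 0.00046–1 μM final in 2% DMSO. Kinase reaction ran 1 h at 25-30° C, followed by 1 h development. The coumarin/fluorescein emission ratio (445/520 nm) gave % phosphorylation, and IC50 was fitted from inhibition relative to uninhibited control.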

[1] = tested on: p-RSK (Thr359) in colo205 cells; assay: p-RSK (Thr359) Acumen Assay in Colo205; format: cell-based; conditions: Homo sapiens, COLO 205, 1 hour compound incubation, read-out: Example 19 IC50
Method in brief: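 Colo205 cells (4000/well, seeded overnight in 10% FBS) were exposed 1 hour at 37° C to compound added from a 3–0.001 μM dilution series in 5% DMSO. Cells were then fixed, permeabilised and immunostained for p-RSK Thr359, with PI counterstain. Acumen cytometry gave the percentage of positive cells, normalised to untreated wells and 3 uM GDC0994 wells, for the IC50 fit.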

T1 sequence (P28482 whole entry): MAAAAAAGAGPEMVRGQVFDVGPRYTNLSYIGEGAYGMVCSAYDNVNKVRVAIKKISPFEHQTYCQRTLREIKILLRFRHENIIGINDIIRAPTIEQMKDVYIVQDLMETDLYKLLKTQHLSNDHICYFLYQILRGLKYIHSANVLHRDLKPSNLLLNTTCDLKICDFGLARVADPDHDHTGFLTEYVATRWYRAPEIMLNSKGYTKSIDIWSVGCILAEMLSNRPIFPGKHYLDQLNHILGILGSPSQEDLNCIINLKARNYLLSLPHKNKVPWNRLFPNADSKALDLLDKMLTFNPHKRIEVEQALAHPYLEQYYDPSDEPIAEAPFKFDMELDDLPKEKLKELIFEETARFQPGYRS

| IC50 (MAPK1(ERK2) enzyme) [nM] | IC50 [1] [nM] | SMILES |
| --- | --- | --- |
| ≤ 5 | ≤ 100 | Cn1nccc1Nc1cc(-c2cc3n(c2)C[C@@H](O)Cn2c-3nnc2C2(C(F)(F)F)CCC2)c(Cl)cn1 [Compound 216] |
| 5 to 10 | ≤ 100 | Cn1nccc1Nc1cc(-c2cc3n(c2)CC(C)(C)Cn2c-3nnc2C2(C(F)(F)F)CCC2)c(Cl)cn1 [Compound 159] |
| > 10 | ≤ 100 | Cc1cnc(Nc2ccnn2C)cc1-c1cc2n(c1)C[C@H](C(F)F)n1c-2nnc1C(F)(F)c1ccccc1Cl [Compound 204] |
| 5 to 10 | ≤ 100 | Cc1cnc(Nc2ccnn2C2COC2)nc1-c1cc2n(c1)C[C@H](C)n1c-2nnc1C(F)(F)c1ccccc1F [Compound 295] |
| ≤ 5 | ≤ 100 | Cn1nccc1Nc1cc(-c2cc3n(c2)CCCn2c-3nnc2C2(C(F)F)CC2)c(Cl)cn1 [Compound 59] |
| ≤ 5 | ≤ 100 | Cn1nccc1Nc1cc(-c2cc3n(c2)CCCn2c-3nnc2C2(C(C)(F)F)CCC2)c(Cl)cn1 [Compound 49] |
| ≤ 5 | ≤ 100 | Cn1nccc1Nc1cc(-c2cc3n(c2)C[C@H](CF)n2c-3nnc2C2(C(F)(F)F)CCC2)c(Cl)cn1 [Compound 121] |
| > 10 | ≤ 100 | Cn1nccc1Nc1cc(-c2cc3n(c2)CCCn2c(COc4ccccc4F)nnc2-3)c(C(F)(F)F)cn1 [Compound 272] |
| ≤ 5 | ≤ 100 | Cn1nccc1Nc1nccc(-c2cn3c(c2F)-c2nnc(COc4ccccc4F)n2CCC3)n1 [Compound 246] |
| ≤ 5 | ≤ 100 | Cn1nccc1Nc1cc(-c2cc3n(c2)CC(F)(F)Cn2c-3nnc2C(C)(C)C(F)(F)F)c(Cl)cn1 [Compound 146] |
| ≤ 5 | > 100 | Cc1cccnc1C(F)(F)c1nnc2n1[C@@H](CF)Cn1cc(-c3cc(Nc4ccnn4C)ncc3Cl)cc1-2 [Compound 175] |
| ≤ 5 | ≤ 100 | Cc1cnc(Nc2ccnn2C)cc1-c1cc2n(c1)CCCn1c-2nnc1C1(C(F)(F)F)CC1 [Compound 233] |
| ≤ 5 | ≤ 100 | Cn1nccc1Nc1nccc(-c2cc3n(c2)C[C@H](CF)n2c-3nnc2C(F)(F)c2ccccc2F)n1 [Compound 100] |
| 5 to 10 | > 100 | Cn1nccc1Nc1cc(-c2cc3n(c2)CCCn2c-3nnc2[C@H](O)C2CCCCC2)c(Cl)cn1 [Compound 24] |
| ≤ 5 | > 100 | C[C@H]1Cn2cc(-c3ccnc(Nc4ccnn4C)c3)cc2-c2nnc(C(F)(F)c3ccccc3F)n21 [Compound 69] |
| ≤ 5 | ≤ 100 | Cn1nccc1Nc1cc(-c2cc3n(c2)C[C@H](CF)n2c-3nnc2C(F)(F)c2nccs2)c(Cl)cn1 [Compound 161] |
| 5 to 10 | > 100 | Cc1cnc(Nc2ccnn2C)cc1-c1cc2n(c1)CC1(CCC1)n1c-2nnc1C(F)(F)C(F)F [Compound 242] |
| ≤ 5 | ≤ 100 | Cn1nccc1Nc1cc(-c2cc3n(c2)CC2(CC2)Cn2c(CCC(F)(F)F)nnc2-3)c(Cl)cn1 [Compound 254] |
| ≤ 5 | ≤ 100 | Cn1nccc1Nc1cc(-c2cc3n(c2)CC2(CC2)Cn2c-3nnc2C2(C(F)F)CCC2)c(Cl)cn1 [Compound 51] |
| ≤ 5 | ≤ 100 | Cc1cnc(Nc2ccnn2C)cc1-c1cc2n(c1)C(C)CCn1c-2nnc1C1(C(F)(F)F)CCC1 (stereo not drawn) [Compound 77] |
| ≤ 5 | > 100 | Cc1cnc(Nc2ccnn2C)cc1-c1cc2n(c1)CC(C)(C)n1c-2nnc1C(F)(F)C(F)F [Compound 234] |

| IC50 (MAPK1(ERK2) enzyme) [nM] | IC50 [1] [nM] | SMILES |
| --- | --- | --- |
| 5 to 10 | ≤ 100 | Cn1nccc1Nc1ncc(Cl)c(-c2cc3n(c2)CCCn2c(COc4ccccc4F)nnc2-3)n1 [Compound 211, 5-chloro-4-(3-((2-fluorophenoxy)methyl)-6,7-dihydro-5H-pyrrolo[1,2-a][1,2,4]triazolo[3,4-c][1,4]diazepin-10-yl)-N-(1-methyl-1H-pyrazol-5-yl)pyrimidin-2-amine] |
| ≤ 5 | > 100 | Cc1cnc(Nc2ccnn2C)nc1-c1cc2n(c1)C[C@@H](C)n1c-2nnc1C1(C(F)(F)F)CCC1 [Compound 239] |
| ≤ 5 | ≤ 100 | Cn1nccc1Nc1cc(-c2cc3n(c2)C[C@H](CF)n2c-3nnc2C(F)(F)c2ccccc2F)c(F)cn1 [Compound 145] |
| > 10 | ≤ 100 | Cc1cc(Nc2ncc(C)c(-c3cc4n(c3)C[C@H](C)n3c-4nnc3C(F)(F)c3ccccc3F)n2)n(C)n1 [Compound 288] |
| ≤ 5 | > 100 | Cc1nonc1Cc1nnc2n1CCCn1cc(-c3cc(Nc4ccnn4C)ncc3Cl)cc1-2 [Compound 10] |
| > 10 | ≤ 100 | Cn1nccc1Nc1cc(-c2cc3n(c2)C[C@H](CF)n2c-3nnc2C(F)(F)c2ccccc2)c(Cl)cn1 [Compound 137] |
| ≤ 5 | ≤ 100 | Cc1cnc(NC2CCOCC2)nc1-c1cc2n(c1)CCCn1c-2nnc1C1(C(F)(F)F)CCC1 [Compound 277] |
| ≤ 5 | > 100 | Cc1c(-c2ccnc(Nc3ccnn3C)n2)cn2c1-c1nnc(Nc3ccccc3F)n1CCC2 [Compound 42] |
| ≤ 5 | ≤ 100 | Cn1nccc1Nc1cc(-c2cc3n(c2)CCCn2c-3nnc2C2(C(F)(F)F)CCC2)c(Cl)cn1 [Compound 30] |
| 5 to 10 | ≤ 100 | Cc1cnc(Nc2ccnn2C)cc1-c1cc2n(c1)C[C@H](CF)n1c-2nnc1C(F)(F)c1ccc(F)cc1F [Compound 184] |
| 5 to 10 | ≤ 100 | Cc1nonc1C(F)(F)c1nnc2n1[C@@H](CF)Cn1cc(-c3cc(Nc4ccnn4C)ncc3Cl)cc1-2 [Compound 158] |
| ≤ 5 | ≤ 100 | Cn1nccc1Nc1cc(-c2cc3n(c2)C[C@H](CF)n2c-3nnc2C(F)(F)n2cc(F)cn2)c(Cl)cn1 [Compound 163] |
| 5 to 10 | ≤ 100 | Cn1nccc1Nc1ncc(F)c(-c2cc3n(c2)C[C@H](CF)n2c-3nnc2C(F)(F)c2ccccc2F)n1 [Compound 148] |
| ≤ 5 | > 100 | Cc1cc(Nc2ncc(C)c(-c3cc4n(c3)CCCn3c-4nnc3C3(C(F)(F)F)CCC3)n2)on1 [Compound 284] |
| ≤ 5 | ≤ 100 | Cc1cnc(Nc2ccnn2C)cc1-c1cc2n(c1)C[C@H](CF)n1c-2nnc1C(F)(F)C(F)F [Compound 62] |
| ≤ 5 | ≤ 100 | Cc1cnc(Nc2ccnn2C)nc1-c1cc2n(c1)CCC(C)(C)n1c-2nnc1C1(C(F)(F)F)CC1 [Compound 251] |
| > 10 | ≤ 100 | C[C@H]1Cn2cc(-c3cc(Nc4ccnn4C)ncc3Cl)cc2-c2nnc(C(F)(F)c3ccccc3Cl)n21 [Compound 178] |
| ≤ 5 | > 100 | Cn1nccc1Nc1cc(-c2cc3n(c2)CCCn2c-3nnc2C2(C#N)CCC2)c(Cl)cn1 [Compound 4] |
| ≤ 5 | ≤ 100 | Cc1cnc(Nc2ccnn2C)nc1-c1cn2c(n1)-c1nnc(C(F)(F)c3ccccc3Cl)n1[C@H](CF)C2 [Compound 224] |
| 5 to 10 | ≤ 100 | Cc1cnc(Nc2ccnn2C)nc1-c1cc2n(c1)C[C@H](C)n1c-2nnc1C(F)(F)c1ccccc1Cl [Compound 125] |
| ≤ 5 | > 100 | Cn1nccc1Nc1cc(-c2cc3n(c2)CCC2(CC2)n2c(CCC(F)(F)F)nnc2-3)c(Cl)cn1 [Compound 255] |
